Reference: patent US8895726B2, “Compounds derived from indole and pharmaceutical compositions containing them” (The Institut Curie, priority 2007, dated 2014)

What was measured:
[1] = biological target: T1, interaction between hUPF1 and hUPF3X (Homo sapiens, UniProt Q92900+Q9BZI7); assay: hUPF1 immunoprecipitation, presence of hUPF3X; type: cell-based; settings: HeLa cell extracts, compound added 20 hours before IP
T1 construct: the hUPF1 protein was immunoprecipitated from HeLa cell extracts; endogenous in cells; host or cells: HeLa
T1 sequence (Q92900 1-1129): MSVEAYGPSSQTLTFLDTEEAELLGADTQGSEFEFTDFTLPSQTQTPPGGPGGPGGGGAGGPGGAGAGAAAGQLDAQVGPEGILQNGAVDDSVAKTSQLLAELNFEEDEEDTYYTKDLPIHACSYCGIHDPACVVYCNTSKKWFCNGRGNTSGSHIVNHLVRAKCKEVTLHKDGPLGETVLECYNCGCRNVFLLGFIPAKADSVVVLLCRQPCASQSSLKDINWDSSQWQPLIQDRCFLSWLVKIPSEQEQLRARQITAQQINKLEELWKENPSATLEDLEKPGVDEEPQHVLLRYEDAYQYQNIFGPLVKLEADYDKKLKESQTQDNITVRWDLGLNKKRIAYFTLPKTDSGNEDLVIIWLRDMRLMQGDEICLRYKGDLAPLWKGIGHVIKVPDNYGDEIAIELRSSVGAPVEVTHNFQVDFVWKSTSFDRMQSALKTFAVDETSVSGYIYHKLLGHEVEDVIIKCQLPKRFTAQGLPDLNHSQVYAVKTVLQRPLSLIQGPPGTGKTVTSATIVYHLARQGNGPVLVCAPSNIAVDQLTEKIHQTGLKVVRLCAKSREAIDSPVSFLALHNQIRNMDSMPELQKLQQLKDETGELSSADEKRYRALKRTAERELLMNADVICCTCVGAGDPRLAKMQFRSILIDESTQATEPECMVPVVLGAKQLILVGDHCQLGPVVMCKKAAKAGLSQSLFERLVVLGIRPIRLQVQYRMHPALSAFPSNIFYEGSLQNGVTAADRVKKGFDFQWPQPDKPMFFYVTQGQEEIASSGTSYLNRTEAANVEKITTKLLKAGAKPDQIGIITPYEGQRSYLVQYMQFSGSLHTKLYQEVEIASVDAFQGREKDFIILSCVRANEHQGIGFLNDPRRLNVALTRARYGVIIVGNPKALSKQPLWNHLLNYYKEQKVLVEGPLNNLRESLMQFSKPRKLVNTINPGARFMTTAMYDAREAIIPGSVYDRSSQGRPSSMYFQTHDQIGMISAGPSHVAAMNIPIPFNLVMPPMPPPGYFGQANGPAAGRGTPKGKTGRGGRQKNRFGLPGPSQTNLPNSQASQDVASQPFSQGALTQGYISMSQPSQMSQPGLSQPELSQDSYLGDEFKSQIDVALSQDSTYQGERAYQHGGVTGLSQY
T1 sequence (Q9BZI7 1-483): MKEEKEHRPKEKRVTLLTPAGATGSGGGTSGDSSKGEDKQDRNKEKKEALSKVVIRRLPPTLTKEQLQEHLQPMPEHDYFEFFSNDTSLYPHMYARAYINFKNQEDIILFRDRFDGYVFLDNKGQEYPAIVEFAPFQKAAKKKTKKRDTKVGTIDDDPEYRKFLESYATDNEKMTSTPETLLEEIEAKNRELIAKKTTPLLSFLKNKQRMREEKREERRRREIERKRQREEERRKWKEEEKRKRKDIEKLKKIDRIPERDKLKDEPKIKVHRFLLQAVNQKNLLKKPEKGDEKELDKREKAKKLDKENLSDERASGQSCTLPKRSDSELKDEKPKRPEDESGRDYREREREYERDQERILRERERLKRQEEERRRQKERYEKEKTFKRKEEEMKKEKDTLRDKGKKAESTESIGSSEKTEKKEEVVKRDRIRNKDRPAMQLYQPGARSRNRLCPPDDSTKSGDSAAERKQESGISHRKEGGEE
Experimental: Immunopurification of hUPF1 and western blot analysis were carried out according to a procedure described earlier (Lejeune and Maquat, 2004) by using an anti-hUPF1 antibody (Ohnishi et al., 2003), The western blot analyses were conducted by using a 1/250 dilution of anti-hUPF1, anti-hSMG5, anti-hSMG6 or anti-hSMG7 rabbit antibodies (Ohnishi et al., 2003), a 1/1000 dilution of anti-hUPF3/3X rabbit antibody (Ishigaki et al., 2001) or of anti-TUBILIN mouse antibody (SIGMA-ALDRICH). The proteins were detected by using the <<SuperSignal West Pico Chemiluminescent Substrate>> or <<SuperSignal West Femto Maximum Sensitivity Substrate>> (PIERCE).
In the light of the previous results, it was contemplated that the compound 70 would be able to prevent recruitment of hUPF1 to EJC via its interaction with other hUPF proteins. For this purpose, the hUPF1 protein was immunoprecipitated from HeLa cell extracts under conditions preserving the integrity of mRNPs (Lejeune and Maquat, 2004).
The compound 70 of DMSO(−) was added to cultures of cells 20 hours before immunoprecipitation (IP).

[2] = tested on: Ter G1 mRNA; assay: NMD measurement by RT-PCR, β-globin (G1) Ter mRNA; type: cell-based; settings: both at the nucleus and at the cytoplasm (Ter G1 and Ter GPx1 mRNA)
Experimental: HeLa cells were grown in 60 mm dishes in DMEM medium (Dulbecco's Modified Eagle Medium, GIBCO-BRL) supplemented with 10% (v/v) of fetal calf serum at 37° C. and with 5% CO2. The cells (1×10^6) were then transfected with 3 μg of test plasmids pmCMV-G1 (Norm or 39Ter) (Sun et al., 1998) or 3 μg pf test plasmids pmCMV-GPx1 (Norm or 46Ter) (Moriarty et al., 1998) and 1 μg of reference plasmid phCMV-MUP (Belgrader and Maquat, 1994) by using the LIPOFECTAMINE PLUS REAGENT (INVITROGEN) kit according to the instructions of the manufacturer. 24 hours after transfection, the cells were treated for 20 hours with 5 μM of each of the compounds to be tested or with 0.01% (v/v) DMSO as a control. The total RNA was purified by using TRI reagent (SIGMA-ALDRICH) according to the instructions of the manufacturer, and then reverse transcription of the mRNAs G1, GPx1 and MUP was carried out before PCR amplification, in the presence of a ^32P-radiolabelled dCTP nucleotide. The PCR conditions and the analysis method were described earlier (Ishigaki et al., 2001). The PCR products were quantified on a Typhoon 9200 (Amersham Biosciences).
HeLa cells were transfected with two test plasmids coding for the RNAs of β-globin (G1) and of glutathione peroxidase 1 (GPx1) and having a termination codon either premature (Ter) or not (Norm). The G1 mRNA is subject to an NMD associated with the nucleus in non-erythroid cells (Thermann et al., 1998; Zhang et al., 1998) while GPx1 mRNA is subject to cytoplasmic NMD (Moriarty et al., 1998). Further, a reference plasmid coding of mRNA of a major urinary protein (MUP) was also introduced into the cells (Ishigaki et al., 2001).
24 hours after transfection, the cells were incubated for 20 hours with DMSO (−) as a control, or with 5 μM of indole compounds shown in Table I. After 20 hours, the total RNAs are finally purified and analyzed by RT-PCR.

In the case of `Cc1c2ccnc(Cl)c2c(C)c2c1[nH]c1ncccc12` [Compound 70, 6-Chloro-5,1-0dimethyl-11H-pyrido[3′,2′:4,5]-pyrrolo[3,2-g]isoquinoline], the “interaction between hUPF1 and hUPF3X” value [1] is reported as “not abolished” and the “NMD inhibition” value [2] is reported as “inhibitors of NMD”.
